Each structure is given as a SMILES string.

Conditions in all cases: 15 mM H2O2, 50 mM potassium phosphate pH 7, 1 min preincubation; read-out: 3-AT IC50
One assay concerns the target L. pyrrhocoris catalase (Leptomonas pyrrhocoris, UniProt A0A0M9FX30). Kind of assay: biochemical. The protocol: (§1) The enzymatic inhibition was measured with 15 mM H2O2 and 50 mM potassium phosphate, pH 7. The enzyme was incubated with different concentrations of inhibitors (KCN or 3-amino-1,2,4-triazole, hereafter denoted as 3-AT, both from MilliporeSigma) for one minute, then the substrate was added and the residual activity was measured at 240 nm for 2 min [56]. All measurements were performed in triplicate.

The target of assay [1] is Blastocrithidia sp. catalase. It is filed as biochemical. As for the experimental part:
as §1

Assay [2] concerns the target V. ingenoplastis catalase. It is filed as biochemical, Vickermania ingenoplastis. As for the experimental part:
as §1

Chain of L. pyrrhocoris catalase (A0A0M9FX30 entry or part of it): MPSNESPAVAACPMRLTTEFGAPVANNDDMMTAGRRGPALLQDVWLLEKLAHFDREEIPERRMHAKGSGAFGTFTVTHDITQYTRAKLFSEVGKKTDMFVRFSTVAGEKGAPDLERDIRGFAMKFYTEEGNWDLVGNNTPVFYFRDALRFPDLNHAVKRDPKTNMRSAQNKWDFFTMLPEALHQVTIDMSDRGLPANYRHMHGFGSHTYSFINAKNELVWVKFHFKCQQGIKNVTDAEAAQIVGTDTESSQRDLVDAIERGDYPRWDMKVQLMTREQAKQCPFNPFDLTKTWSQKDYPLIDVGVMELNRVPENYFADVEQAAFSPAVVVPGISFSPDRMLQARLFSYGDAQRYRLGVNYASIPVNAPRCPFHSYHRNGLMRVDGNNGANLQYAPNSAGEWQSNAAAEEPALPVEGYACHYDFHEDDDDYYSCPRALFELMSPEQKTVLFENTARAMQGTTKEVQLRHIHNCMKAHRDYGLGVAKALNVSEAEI

Broadly, the IC50 is the concentration at which inhibition is half-maximal. As to `Nc1nc[nH]n1` [3-AT, 3-amino-1,2,4-triazole], the IC50 came out at 10.4 mM at L. pyrrhocoris catalase, 15.6 mM in assay [1] and 11.4 mM in assay [2].

The record behind these values is publication PMC8773446, “Comparative Analysis of Three Trypanosomatid Catalases of Different Origin” (Antioxidants, 2021).
